Laboratory results from patent US20120214736A1, “COMPOSITIONS AND METHODS FOR THE MODULATION OF JNK PROTEINS” (Isis Pharmaceuticals, Inc., priority 2006, published 2012).
In the oligonucleotide strings, read from the 5' end, every base follows the letter of its sugar. An asterisk marks phosphorothioate; unmarked linkages are phosphodiester. Other units and linkages are bracketed, terminal groups are in braces. A string of capitals states the bases alone. e = 2'-O-(2-methoxyethyl) (MOE); [5mC] = 5-methylcytosine; d = 2'-deoxy (DNA)

Experiments:
rat JNK2 mRNA = assay: Northern assay, rat JNK2 (p54a) mRNA levels in A10 aortic smooth muscle cells; type: cell-based; conditions: Northern assays
Protocol: (§1) In order to study the role of JNK proteins in animal models, oligonucleotides targeted to the genes encoding JNK1, JNK2 and JNK3 of Rattus norvegicus were prepared. These oligonucleotides are 2′-methoxyethoxy, phosphodiester/2′-hydroxyl, phosphorothioate/2′-methoxyethoxy, phosphodiester “gapmers” in which every cytosine residue is 5-methylcytosine (m5c). These antisense compounds were synthesized according to the methods of the disclosure. Certain of these oligonucleotides are additionally specifically hybridizable to JNK genes from other species as indicated herein. The oligonucleotides described in this Example were tested for their ability to modulate rat JNK mRNA levels essentially according to the methods described in the preceding Examples, with the exceptions that the cell line used was rat A10 aortic smooth muscle cells (ATCC No. ATCC CRL-1476) and the probes used were specific for rat JNK1, JNK2 or JNK3 (see infra). A10 cells were grown and treated with oligonucleotides essentially as described by (Cioffi et al. Mol. Pharmacol., 1997, 51, 383).
(§2) These antisense compounds were tested for their ability to modulate levels of (JNK1) and (JNK2) mRNA in A10 cells via Northern assays. Due to the high degree of sequence identity between the human and rat genes, radiolabeled human JNK1 (Example 3) and JNK2 (Example 4) cDNAs functioned as specific probes for the rat homologs. […]

JNK2 mRNA = assay: Northern assay, JNK2 mRNA expression in A549 cells; type: cell-based, human; conditions: for response of JNK2 mRNA levels in A549 cells (dose and sequence dependence): 50, 100, 200 and 400 nM
Protocol: (§3) In order to evaluate the activity of potential JNK-modulating oligonucleotides, human lung carcinoma cell line A549 (American Type Culture Collection, Rockville, Md. No. ATCC CCL-185) cells or other cell lines as indicated in the Examples, were grown and treated with oligonucleotides or control solutions as detailed below. After harvesting, cellular extracts were prepared and examined for specific JNK mRNA levels or JNK protein levels (i.e., Northern or Western assays, respectively). In all cases, “% expression” refers to the amount of JNK-specific signal in an oligonucleotide-treated cell relative to an untreated cell (or a cell treated with a control solution that lacks oligonucleotide).
(§4) Northern Assays The mRNA expression of each JNK protein was determined by using a nucleic acid probe specifically hybridizable thereto. Nucleic acid probes specific for JNK1, JNK2 and JNK3 are described in Examples 3, 4 and 5, respectively. The probes were radiolabelled by means well known in the art (see, e.g., Short Protocols in Molecular Biology, 2nd Ed., Ausubel et al., Eds., John Wiley & Sons, New York, 1992, pages 3-11 to 2-3-44 and 4-17 to 4-18; Ruth, Chapter 6 In: Methods in Molecular Biology, Vol. 26: Protocols for Oligonucleotide Conjugates, Agrawal, ed., Humana Press Inc., Totowa, N.J., 1994, pages 167-185; and Chapter 10 In: Molecular Cloning: A Laboratory Manual, 2nd Ed., Sambrook et al., Eds., pages 10.1-10.70). The blots were stripped and reprobed with a ^32P-labeled glyceraldehyde 3-phosphate dehydrogenase (G3PDH) probe (Clontech Laboratories, Inc., Palo Alto, Calif.) in order to confirm equal loading of RNA and to allow the levels of JNK transcripts to be normalized with regard to the G3PDH signals.
A549 cells were grown in T-75 flasks until 80-90% confluent. At this time, the cells were washed twice with 10 mL of media (DMEM), followed by the addition of 5 mL of DMEM containing 20 ┘g/mL of LIPOFECTIN™ (i.e., 1:1 (w/w) DOTMA/DOPE, Life Technologies, Gaithersburg, Md.; DOTMA=N-[1-(2,3-dioleyoxy)propyl]-N,N,N-trimethylammonium chloride; DOPE=dioleoyl phosphatidylethanolamine). The oligonucleotides were added from a 10 μM stock solution to a final concentration of 400 nM, and the two solutions were mixed by swirling the flasks. As a control, cells were treated with LIPOFECTIN™ without oligonucleotide under the same conditions and for the same times as the oligonucleotide-treated samples. After 4 hours at 37° C., the medium was replaced with fresh DMEM containing 10% serum. The cells were allowed to recover for 18 hours. Total cellular RNA was then extracted in guanidinium, subject to gel electrophoresis and transferred to a filter according to techniques known in the art (see, e.g., Chapter 7 In: Molecular Cloning: A Laboratory Manual, 2nd Ed., Sambrook et al., Eds., pages 7.1-7.87, and Short Protocols in Molecular Biology, 2nd Ed., Ausubel et al., Eds., John Wiley & Sons, New York, 1992, pages 2-24 to 2-30 and 4-14 to 4-29). Filters were typically hybridized overnight to a probe specific for the particular JNK gene of interest in hybridization buffer (25 mM KPO4, pH 7.4; 5×SSC; 5×Denhardt's solution, 100 µg/ml Salmon sperm DNA and 50% formamide) (Alahari et al., Nucl. Acids Res., 1993, 21, 4079). […] Hybridizing bands were visualized by exposure to X-OMAT AR film and quantitated using a PHOSPHORIMAGER™ essentially according to the manufacturer's instructions (Molecular Dynamics, Sunnyvale, Calif.). […]

[1] = tested on: TNFa-induced JNK activity; assay: TNFa-induced JNK activity in HUVEC (GST-c-Jun phosphorylation); type: cell-based, human; conditions: 100 nM, 5 ng/ml TNFa 15 minutes, compared to a control oligonucleotide
Protocol: Human umbilical vein endothelial cells (HUVEC, Clonetics, San Diego Calif.) were incubated with oligonucleotide with LipofectinJ in Opti-MEMJ for 4 hours at 37° C./5% CO2. The medium was then replaced with 1% FBS/EGM (Clonetics, Walkersville Md.) and incubated for 24 hours at 37° C./5% CO2. Cells were treated with 5 ng/ml TNFa for 15 minutes before lysis. JNK activity was determined by incubating lysates (normalized for protein) with immobilized GST-c-Jun fusion protein (e.g., New England Biolabs, Beverly, Mass.)+^32P-ATP. GST-c-Jun beads were washed and SDS-PAGE sample buffer was added. Samples were resolved by SDS-PAGE and phosphorylated c-Jun was visualized using a Molecular Dynamics PhosphorImager.

JNK1 mRNA = assay: Northern assay, JNK1 mRNA expression in A549 cells; type: cell-based, human; conditions: for response of JNK1 mRNA levels in A549 cells (dose and sequence dependence): 50, 100, 200 and 400 nM; for RNA % Inhibition: 300 nM for initial 20 hours then 200 nM for 4 hours
Protocol: as §3, §4
A549 cells were grown in T-75 flasks until 80-90% confluent. At this time, the cells were washed twice with 10 mL of media (DMEM), followed by the addition of 5 mL of DMEM containing 20 ┘g/mL of LIPOFECTIN™ (i.e., 1:1 (w/w) DOTMA/DOPE, Life Technologies, Gaithersburg, Md.; DOTMA=N-[1-(2,3-dioleyoxy)propyl]-N,N,N-trimethylammonium chloride; DOPE=dioleoyl phosphatidylethanolamine). The oligonucleotides were added from a 10 μM stock solution to a final concentration of 400 nM, and the two solutions were mixed by swirling the flasks. As a control, cells were treated with LIPOFECTIN™ without oligonucleotide under the same conditions and for the same times as the oligonucleotide-treated samples. After 4 hours at 37° C., the medium was replaced with fresh DMEM containing 10% serum. The cells were allowed to recover for 18 hours. Total cellular RNA was then extracted in guanidinium, subject to gel electrophoresis and transferred to a filter according to techniques known in the art (see, e.g., Chapter 7 In: Molecular Cloning: A Laboratory Manual, 2nd Ed., Sambrook et al., Eds., pages 7.1-7.87, and Short Protocols in Molecular Biology, 2nd Ed., Ausubel et al., Eds., John Wiley & Sons, New York, 1992, pages 2-24 to 2-30 and 4-14 to 4-29). Filters were typically hybridized overnight to a probe specific for the particular JNK gene of interest in hybridization buffer (25 mM KPO4, pH 7.4; 5×SSC; 5×Denhardt's solution, 100 µg/ml Salmon sperm DNA and 50% formamide) (Alahari et al., Nucl. Acids Res., 1993, 21, 4079). This was followed by two washes with 1×SSC, 0.1% SDS and two washes with 0.25×SSC, 0.1% SDS. Hybridizing bands were visualized by exposure to X-OMAT AR film and quantitated using a PHOSPHORIMAGER™ essentially according to the manufacturer's instructions (Molecular Dynamics, Sunnyvale, Calif.).
JNK1-specific probes: In initial screenings of a set of oligonucleotides derived from the JNK1 sequence (Table 2) for biological activity, a cDNA clone of JNK1 (Derijard et al., Cell, 1994, 76, 1025) was radiolabeled and used as a JNK1-specific probe in Northern blots. Alternatively, however, one or more of the oligonucleotides of Table 1 is detectably labeled and used as a JNK1-specific probe. […]

rat JNK1 mRNA = assay: Northern assay, rat JNK1 mRNA levels in A10 aortic smooth muscle cells; type: cell-based; conditions: Northern assays
Protocol: as §1, §2

human JNK2 mRNA = assay: Northern analysis, human JNK2 mRNA in Jurkat cells (electroporation, dose response); type: cell-based; conditions: Jurkat cells
Protocol: Jurkat cells were routinely cultured in RPMI Medium 1640 (Gibco/Life Technologies, Gaithersburg, Md.) supplemented with 20% fetal calf serum (Gibco/Life Technologies, Gaithersburg, Md.). Cells were routinely passaged by aspirating media that contained excess cells and replenishing with new media.
For electroporation, cells were diluted to 28×10^6 cells/mL and placed into 1 mm electroporation cuvettes. Electroporation is performed by treating with 1-20 μM oligonucleotide, at 160 Volts for 6 msec. The entire electroporated samples are then placed into 5 mL of 10% FBS/RPMI Medium 1640 in 100 mm plates. Plates are then left overnight at 37° C./5% CO2.
Each sample is then transferred to 15 mL conical tubes and spun down at 1200 rpm for 5 minutes followed by aspiration of the supernatant. Cells are then suspended in 5 mL PBS followed by a second centrifugation at 1200 rpm for 5 minutes followed by aspiration of the supernatant. Cells are then washed and lysed. Following the lysis step, total cellular RNA is then isolated using the RNEASY kit (Qiagen, Santa Clarita, Calif.) as described in other examples herein.
In accordance with the present invention, Jurkat cells were treated by electroporation with 1, 5 or 20 uM ISIS 101759 or the control oligonucleotide and mRNA levels of human JNK2 were quantitated by Northern analysis.

## 18259 (antisense eGe[5mC]eTe[5mC]eA*dG*dT*dG*dG*dA*d[5mC]*dA*dT*dG*dG*eAeTeGeAeG) [compound 18259]
Rat JNK2 mRNA
  specific modulation of mRNA encoding JNK2 (dose response): specifically modulates levels of mRNA encoding JNK1 and JNK2, respectively

## 14319 (dG*dT*dG*dC*dG*dC*dG*dC*dG*dA*dG*dC*dC*dC*dG*dA*dA*dA*dT*dC) [compound 14319]
JNK2 mRNA
  response of JNK2 mRNA levels in A549 cells (dose and sequence dependence): neither of the control oligonucleotides effect any consistent response

## 15353 (antisense GTCCGGGCCAGGCCAAAGTC; P=S gapmer, 2'-MOE wings, chemistry not fully specified) [compound 15353]
[1]
  inhibition of TNFa-induced JNK activity: approximately 55%

## 12560 (antisense dG*dT*dC*dC*dG*dG*dG*dC*dC*dA*dG*dG*dC*dC*dA*dA*dA*dG*dT*dC) [compound 12560]
JNK2 mRNA; for at least about 12 hours following the 4 hour treatment
  level of inhibition of JNK2: greater than or equal to 80%
JNK2 mRNA; up to at least about t=48 h
  level of inhibition of JNK2: greater than or equal to 60%

## 14320 (sense CCAAGCGGGCCTACAGAGAG; DNA, all phosphorothioate, methylation of C not given here) [compound 14320]
JNK1 mRNA
  response of JNK1 mRNA levels in A549 cells (dose and sequence dependence): neither of the control oligonucleotides effect any consistent response

## 14318 (sense dG*dA*dC*dT*dT*dT*dG*dG*dC*dC*dT*dG*dG*dC*dC*dC*dG*dG*dA*dC) [compound 14318]
JNK2 mRNA
  response of JNK2 mRNA levels in A549 cells (dose and sequence dependence): neither of the control oligonucleotides effect any consistent response

## 21859 (antisense e[5mC]eTe[5mC]eAeT*dG*dA*dT*dG*dG*d[5mC]*dA*dA*dG*d[5mC]*eAeAeTeTeA) [compound 21859]
Rat JNK1 mRNA
  specific modulation of mRNA encoding JNK1 (dose response): specifically modulates levels of mRNA encoding JNK1 and JNK2, respectively

## 12539 (antisense CTCTCTGTAGGCCCGCTTGG; DNA, all phosphorothioate, methylation of C not given here) [compound 12539]
JNK1 mRNA
  response of JNK1 mRNA levels in A549 cells (dose and sequence dependence): dependent on dose in an approximately linear fashion
JNK1 mRNA; t = 48 h
  RNA % Inhibition: 93.3%
JNK1 mRNA; t = 72 h
  RNA % Inhibition: 88.3%
JNK2 mRNA
  response of JNK2 mRNA levels in A549 cells (dose and sequence dependence): dependent on dose in an approximately linear fashion

## 14321 (CTTTCCGTTGGACCCCTGGG; DNA, all phosphorothioate, methylation of C not given here) [compound 14321]
JNK1 mRNA
  response of JNK1 mRNA levels in A549 cells (dose and sequence dependence): neither of the control oligonucleotides effect any consistent response

## 101759 (antisense GCTCAGTGGACATGGATGAG; sugars from the 5' end e5 d10 e5, all phosphorothioate, methylation of C not given here) [compound 101759]
Human JNK2 mRNA; 1 uM
  Percent Inhibition of human JNK2 mRNA: 14%
Human JNK2 mRNA; 5 uM
  Percent Inhibition of human JNK2 mRNA: 56%
Human JNK2 mRNA; 20 uM
  Percent Inhibition of human JNK2 mRNA: 92%

## 15346 (antisense CTCTCTGTAGGCCCGCTTGG; gapmer: P=S, 2'-MOE wings, 2'-deoxy core, chemistry not fully specified) [compound 15346]
JNK1 mRNA; t = 48 h
  RNA % Inhibition: 95.7%
JNK1 mRNA; t = 72 h
  RNA % Inhibition: 89.4%
